The target of test [1] is T1, DAUDA–FABP1 (Homo sapiens, UniProt P07148).
T1 construct: GST (N, cleaved yes); made in house; host or cells: Escherichia coli DH5α
T1 sequence (P07148 with tags, fused parts or gaps): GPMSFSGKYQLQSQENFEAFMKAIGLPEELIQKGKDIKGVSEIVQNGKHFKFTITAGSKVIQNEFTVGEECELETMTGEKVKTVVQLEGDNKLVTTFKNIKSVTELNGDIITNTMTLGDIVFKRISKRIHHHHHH
The test is described as follows: Stopped-flow kinetics of palmitate binding to DAUDA–FABP1. The procedure:
As mentioned previously, palmitate was selected to measure binding kinetics to DAUDA–FABP1 because of the low Kd observed with the protein (Fig. 5D, Table 1). When a ligand binds to DAUDA-bound FABP1, DAUDA is displaced (potentially to the second ligand-binding site, forming a ternary complex; Figure 2, Figure 5 and Figure 2, Figure 5A) and attenuates the fluorescence of the system (Fig. 5). Taking advantage of this phenomenon, we preincubated FABP1 (0.5 μM) with DAUDA (0.5 μM) to form the fluorescent complex. This complex was then rapidly mixed with palmitate (0.5 μM to 25 μM), and the attenuation of fluorescence was monitored as palmitate binds and displaces DAUDA. The data were fit to double exponential equations, and the rate of initial binding was not observed to vary with palmitate concentration (Fig. 7). A kon value (k5) of 2.3 ± 0.2 × 10^7 M^−1 s^−1 was calculated from the data (Fig. 7A).
Figure 7 Kinetics of binding of palmitate to FABP1. A stoichiometric mixture of DAUDA and FABP1 (0.5 μM) was rapidly combined with (A) 0.5 μM, (B) 5 μM, (C) 12.5 μM, and (D) 25 μM palmitate, and the attenuation of fluorescence (λex = 335 nm, λem > 420 nm) was monitored over time (as FD → FDS, Fig. 5A). The plots were fit to double exponential equations, and the following rate constants for each phase were extracted: A, k1 11 ± 1 s^−1, k2 0.04 ± 0.003 s^−1; B, k1 16± 1s^−1, k2 0.017 ± 0.004 s^−1; C, k1 14 ± 1 s^−1, k2 0.05 ± 0.01 s^−1; D, k1 13 ± 1 s^−1, k2 0.07 ± 0.01 s^−1. Each trace corresponds to ≥6 averaged replicate traces. DAUDA, 11-dansylaminoundecanoic acid; FABP1, fatty acid binding protein.
The kon determination of FABP1 with palmitate was done in the same manner as described with DAUDA but with the modification that the solutions mixed in the stopped-flow spectrofluorometer were (A) FABP1 (1 μM) and DAUDA (1 μM, aliquoted from a stock solution prepared in K2CO3 [50 mM], see “Preparation of DAUDA stock solutions”) and (B) palmitate (1–50 μM, aliquoted from a stock solution prepared in K2CO3 [50 mM]). Both mixing solutions (2 ml) were prepared in potassium phosphate buffer (100 mM, pH 7.4). The data collection, processing, and analysis proceeded via the same steps described earlier. The only difference in interpretation is that the signal (binding of palmitate) displaces DAUDA in the FABP1-binding site, so we observe an attenuation of fluorescence.

Test [2] deals with T2, P450 4A11 (Homo sapiens, UniProt Q02928).
T2 construct: made in house; host or cells: E. coli
T2 sequence (Q02928 5-519): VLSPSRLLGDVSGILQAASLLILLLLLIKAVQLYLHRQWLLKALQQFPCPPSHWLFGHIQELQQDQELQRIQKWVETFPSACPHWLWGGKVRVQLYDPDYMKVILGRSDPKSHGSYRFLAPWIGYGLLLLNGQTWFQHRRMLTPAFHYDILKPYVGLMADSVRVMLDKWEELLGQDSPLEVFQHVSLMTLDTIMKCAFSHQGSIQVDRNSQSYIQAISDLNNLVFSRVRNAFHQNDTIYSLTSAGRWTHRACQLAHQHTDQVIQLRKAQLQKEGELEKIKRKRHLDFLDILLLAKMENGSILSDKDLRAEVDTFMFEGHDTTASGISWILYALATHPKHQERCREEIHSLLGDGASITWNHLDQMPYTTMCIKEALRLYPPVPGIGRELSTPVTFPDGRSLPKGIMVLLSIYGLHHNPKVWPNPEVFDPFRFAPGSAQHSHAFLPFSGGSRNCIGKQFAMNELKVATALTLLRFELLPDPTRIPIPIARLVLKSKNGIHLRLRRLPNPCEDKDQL
T2 sequence (P07148 with tags, fused parts or gaps partner): T1 sequence (P07148 with tags, fused parts or gaps)
Nature of the test: Alexa-FABP1 and P450 4A11 association kinetics (stopped-flow fluorescence). The class given is binding. On the procedure: We then investigated whether the rate of protein–protein association could be estimated using our fluorescent construct. A solution of Alexa-FABP1 (125 nM final concentration) was rapidly mixed with P450 4A11 (125 Nm final concentration), and Alexa-488 fluorescence was monitored over time. The data were fit to a single exponential equation and yielded an association rate of 2.0 ± 0.2 s^−1 (Fig. 10B).
To estimate a rate of interaction for FABP1 and P450, we loaded the protein–protein binding data (Fig. 10B) and fit the data to a simple model, E+F↔EF , as described in the Experimental procedures section. The software fit a kon rate of 2.0 × 10^7 M^−1 s^−1, close to that estimated by using the extracted binding rate ∼2 s^−1 at the concentration (0.125 μM) of either reaction component (i.e., 2 s^−1/0.125 μM = 16 μM^−1 s^−1 = 1.6 × 10^7 M^−1 s^−1).
Mixing solutions (2 ml) of (A) Alexa-FABP1 (0.25 μM [estimated by A280 prior to conjugation reaction, accounting for dilution, and assuming no protein loss during the reaction as described earlier]) and (B) P450 4A11 (0.25 μM) were prepared in potassium phosphate buffer (100 mM, pH 7.4) and loaded into the stopped-flow spectrofluorometer described earlier. The instrument (1.24 mm slit width) was set with an excitation wavelength of 470 nm and Oriel end-on filter for emission >495 nm. The fluorescence maximum of Alexa-FABP1 is 510 nm as described earlier, and stimulation is observed upon protein–protein binding (see “Titrations of Alexa-FABP1 with P450 4A11”). At least six replicate measurements were recorded, the spectra were processed such that the fluorescence gain (from DAUDA binding) began at an (x, y) intercept of (0, 0), and the spectra were averaged. A smoothing factor of 0.4 was applied to the data (in Microsoft Excel), and the resulting curve was fit to a single exponential plot in GraphPad Prism, and the rate of association was extracted. The data were loaded into KinTek Explorer and fit to a minimal kinetic model of protein–protein association (i.e., E+F↔EF ), and a second-order rate constant for the association was extracted.

`CCCCCCCCCCCCCCCC(=O)O` [Palmitate (C16), palmitate]: the “k1 (fast phase), palmitate binding to DAUDA–FABP1” value stood at 11 ± 1 s⁻¹ in test [1] (0.5 μM palmitate), 16 ± 1 s⁻¹ in test [1] (5 μM palmitate), 14 ± 1 s⁻¹ in test [1] (12.5 μM palmitate) and 13 ± 1 s⁻¹ in test [1] (25 μM palmitate). In addition, the “k2 (slow phase), palmitate binding to DAUDA–FABP1” value came to 0.04 ± 0.003 s⁻¹ in test [1] (0.5 μM palmitate), 0.017 ± 0.004 s⁻¹ in test [1] (5 μM palmitate), 0.05 ± 0.01 s⁻¹ in test [1] (12.5 μM palmitate) and 0.07 ± 0.01 s⁻¹ in test [1] (25 μM palmitate). In addition, in test [1] (DAUDA and FABP1 0.5 μM each, read-out: kon of palmitate to DAUDA–FABP1 (k5)), the kon (usually the rate constant with which the complex forms) worked out at 2.3e+07 M⁻¹ s⁻¹.
“FABP1: delipidated recombinant liver fatty acid binding protein with C-terminal hexahistidine tag”: the “rate of protein–protein association” value in test [2] (Alexa-FABP1 0.125 μM, P450 4A11 0.125 μM, single exponential) is around 2 s⁻¹. Besides, the “kon of FABP1–P450 4A11 association (k6)” value in test [2] (KinTek fit to E+F↔EF) is listed as 2.0 × 10^7 (k6) M^−1 s^−1. The “kon of FABP1–P450 4A11 association” value in test [2] (binding rate ∼2 s^−1 divided by 0.125 μM) is 1.6e+07 M⁻¹ s⁻¹. Besides, the “koff of FABP1–P450 4A11 (k-6)” value in test [2] (calculated from kon and Kd) is 2.4 (k-6) s^−1.

The values are drawn from publication PMC11847541, “Liver fatty acid binding protein FABP1 transfers substrates to cytochrome P450 4A11 for catalysis” (The Journal of Biological Chemistry, 2025).
